Measurements as given in ChEMBL document CHEMBL1131662, “Synthesis and structure-activity relationship of potent bicyclic lactam thrombin inhibitors” (Bioorg Med Chem Lett, 1999).

Assays:
Prothrombin [1] = molecular target: T1, Prothrombin (Homo sapiens, UniProt P00734); experiment: In vitro inhibitory activity against human thrombin.
Prothrombin [2] = molecular target: T1, Prothrombin; experiment: In vitro inhibitory activity against human thrombin.( Fast moving component on HPLC)
Prothrombin [3] = molecular target: T1, Prothrombin; experiment: In vitro inhibitory activity against human thrombin.(Slow moving component on HPLC)

| SMILES | Ki (Prothrombin [1]) | Ki (Prothrombin [2]) | Ki (Prothrombin [3]) |
| --- | --- | --- | --- |
| C[C@]12CC[C@@H](CCc3ccccc3)C(=O)N1[C@H](C(=O)NC(CCCN=C(N)N)C(=O)c1nc3ccccc3s1)CS2 (stereo not given in full) | 235 nM |  |  |
| C[C@]12CC[C@@H](c3ccc4nc(C(F)(F)F)ccc4c3)C(=O)N1[C@H](C(=O)NC(CCCN=C(N)N)C(=O)c1nccs1)CS2 (stereo not given in full) | 10 nM |  |  |
| C[C@]12CC[C@H](CCc3ccccc3)C(=O)N1[C@H](C(=O)NC(CCCN=C(N)N)C(=O)c1nc3ccccc3s1)CS2 (stereo not given in full) | 550 nM |  |  |
| NC(N)=NCCCC(NC(=O)[C@@H]1CS[C@H]2CC[C@H](Cc3ccccc3)C(=O)N21)C(=O)c1nc2ccccc2s1 (stereo not given in full) | 1110 nM |  |  |
| C[C@]12CC[C@@H](Cc3ccccc3)C(=O)N1[C@H](C(=O)NC(CCCN=C(N)N)C(=O)c1nc3ccccc3s1)CS2 (stereo not given in full) | 18 nM |  |  |
| C[C@]12CC[C@@H](c3ccc4nc(C(F)(F)F)ccc4c3)C(=O)N1[C@H](C(=O)NC(CCCN=C(N)N)C(=O)c1nc3ccccc3s1)CS2 (stereo not given in full) | 18 nM |  |  |
| C[C@]12CC[C@@H](CCCc3ccccc3)C(=O)N1[C@H](C(=O)NC(CCCN=C(N)N)C(=O)c1nccs1)CS2 (stereo not given in full) |  | 2 nM | 6 nM |
| C[C@]12CC[C@H](c3ccc4nc(C(F)(F)F)ccc4c3)C(=O)N1[C@H](C(=O)NC(CCCN=C(N)N)C(=O)c1nccs1)CS2 (stereo not given in full) | 150 nM |  |  |
| C[C@]12CC[C@H](CCCc3ccccc3)C(=O)N1[C@H](C(=O)NC(CCCN=C(N)N)C(=O)c1nccs1)CS2 (stereo not given in full) | 100 nM |  |  |
